In patent publication US9980943B2, “Methods of treating muscular dystrophy” (BOARD OF REGENTS OF THE NEVADA SYSTEM OF HIGHER EDUCATION, …, priority 2013, dated 2018):

What was measured:
Assay type in all cases: cell-based, mouse
[1] = system: α7 integrin (LacZ reporter in α7+/LacZ myotubes); assay: Myotube α7 integrin FDG assay (Burkin assay in myotubes, 96-well); conditions: myotubes
[2] = system: β-galactosidase in CMV-LacZ C2C12 myotubes; assay: CMV-LacZ secondary screen in C2C12 myotubes (β-Gal stabilizing assay); conditions: for CMV-LACZ in Myotubes, signal relative to DMSO: C2C12 CMV-LacZ myotubes, fold relative to DMSO; for CMV-LACZ in Myotubes (β-galactosidase activity relative to DMSO): CMV-LacZ C2C12 myotubes, 96-well format
Method in brief: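 First, C2C12 myoblasts were transfected with a linearized CMV-LACZ vector and clonal lines selected by FDG β-gal assay. Then cells were exposed to compounds at 0.5, 1, 5, 10, 20 and 40 μM in 96-well format, two replicates each, and β-gal measured.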

[3] = system: α7 integrin (LacZ reporter in α7βgal+/− myoblasts); assay: Myoblast α7+/LacZ integrin FDG assay (Burkin assay in myoblasts, 96-well); conditions: α7+/LacZ myoblasts, 96-well

| Compound | Burkin Assay in Myotubes, α7 integrin LacZ reporter signal relative to DMSO ([1]; 0.5 uM) | Burkin Assay in Myotubes, α7 integrin LacZ reporter signal relative to DMSO ([1]; 1 uM) | Burkin Assay in Myotubes, α7 integrin LacZ reporter signal relative to DMSO ([1]; 5 uM) | Burkin Assay in Myotubes, α7 integrin LacZ reporter signal relative to DMSO ([1]; 10 uM) | Burkin Assay in Myotubes, α7 integrin LacZ reporter signal relative to DMSO ([1]; 20 uM) | Burkin Assay in Myotubes, α7 integrin LacZ reporter signal relative to DMSO ([1]; 40 uM) | CMV-LACZ in Myotubes, signal relative to DMSO ([2]; 5 uM) | CMV-LACZ in Myotubes, signal relative to DMSO ([2]; 10 uM) | CMV-LACZ in Myotubes, signal relative to DMSO ([2]; 20 uM) | CMV-LACZ in Myotubes, signal relative to DMSO ([2]; 40 uM) | Burkin Assay in Myoblasts, signal relative to DMSO ([3]; 0.5 uM) | Burkin Assay in Myoblasts, signal relative to DMSO ([3]; 1 uM) | Burkin Assay in Myoblasts, signal relative to DMSO ([3]; 5 uM) | Burkin Assay in Myoblasts, signal relative to DMSO ([3]; 10 uM) | Burkin Assay in Myoblasts, signal relative to DMSO ([3]; 20 uM) | Burkin Assay in Myoblasts, signal relative to DMSO ([3]; 40 uM) | Burkin Assay in Myotubes (signal relative to DMSO) ([1]; 0.5 uM) | Burkin Assay in Myotubes (signal relative to DMSO) ([1]; 1 uM) | Burkin Assay in Myotubes (signal relative to DMSO) ([1]; 5 uM) | Burkin Assay in Myotubes (signal relative to DMSO) ([1]; 10 uM) | also measured |
| --- | --- | --- | --- | --- | --- | --- | --- | --- | --- | --- | --- | --- | --- | --- | --- | --- | --- | --- | --- | --- | --- |
| COC(=O)C1=NNC2(C)C(=O)N(c3ccc(C)cc3)C(=O)C12 (stereo not shown) [MLS000767227-01] | 0.8593 | 0.8998 | 0.9645 | 0.844 | 0.7775 | 0.9434 | 1.024 | 1.1 | 0.9975 | 1.1815 | 1.025 | 0.8073 | 0.8577 | 0.9107 | 0.9133 | 0.9283 | – | – | – | – | – |
| CCCCCCC1CC(=O)NC(=O)N1 (stereo not shown) [MLS000768008-01] | 1.073 | 1.179 | 1.11 | 1.273 | 1.098 | 1.2867 | 0.8276 | 0.9644 | 1.028 | 0.9429 | 0.9886 | 0.9618 | 0.8976 | 0.8768 | 0.7837 | 0.8787 | – | – | – | – | – |
| COc1cccc(N2C(=O)CC(N3CCc4ccccc4C3)C2=O)c1 (stereo not shown) [MLS000769322-01] | – | – | – | – | – | – | – | – | – | – | – | – | – | – | – | – | 0.9609 | 1.055 | 1.1195 | 1.165 | Burkin Assay in Myotubes (signal relative to DMSO) ([1]; 20 uM): 1.067; Burkin Assay in Myotubes (signal relative to DMSO) ([1]; 40 uM): 1.019; CMV-LACZ in Myotubes (β-galactosidase activity relative to DMSO) ([2]; 5 uM): 0.8609; CMV-LACZ in Myotubes (β-galactosidase activity relative to DMSO) ([2]; 10 uM): 1.02; CMV-LACZ in Myotubes (β-galactosidase activity relative to DMSO) ([2]; 20 uM): 1.118; CMV-LACZ in Myotubes (β-galactosidase activity relative to DMSO) ([2]; 40 uM): 1.091; Burkin Assay in Myoblasts, value relative to DMSO ([3]; 0.5 uM): 0.9535; Burkin Assay in Myoblasts, value relative to DMSO ([3]; 1 uM): 0.9354; Burkin Assay in Myoblasts, value relative to DMSO ([3]; 5 uM): 0.9653; Burkin Assay in Myoblasts, value relative to DMSO ([3]; 10 uM): 1.0771; Burkin Assay in Myoblasts, value relative to DMSO ([3]; 20 uM): 1.006; Burkin Assay in Myoblasts, value relative to DMSO ([3]; 40 uM): 0.955 |
| CCNC(=O)CSc1nc(-c2ccc(F)cc2)cs1 [MLS000772194-01] | – | – | – | – | – | – | 1.068 | 0.9234 | 1.056 | 0.9968 | – | – | – | – | – | – | 0.9782 | 0.9192 | 0.9654 | 1.072 | Burkin Assay in Myotubes (signal relative to DMSO) ([1]; 20 uM): 0.9904; Burkin Assay in Myotubes (signal relative to DMSO) ([1]; 40 uM): 0.7651; Burkin Assay in Myoblasts, value relative to DMSO ([3]; 0.5 uM): 1.096; Burkin Assay in Myoblasts, value relative to DMSO ([3]; 1 uM): 1.059; Burkin Assay in Myoblasts, value relative to DMSO ([3]; 5 uM): 1.055; Burkin Assay in Myoblasts, value relative to DMSO ([3]; 10 uM): 1.082; Burkin Assay in Myoblasts, value relative to DMSO ([3]; 20 uM): 1.098; Burkin Assay in Myoblasts, value relative to DMSO ([3]; 40 uM): 1.149 |
